The values below come from patent US20120177701A1, “COMPOSITIONS COMPRISING IMMUNOSTIMULATORY NUCLEIC ACIDS AND RELATED METHODS” (priority 2010, published 2012).

Series [1] has as its system J774 murine macrophages. The series is described as follows: TNF-α induction in mouse macrophage cell line J774. It is filed as cell-based. How it is done:
Induction of TNF-α by macrophages is a hallmark of human TLR8 activation (Forsbach et al., 2008, J. Immunol., 180:3729-38; Ghosh et al., 2007, Int. Immunopharmacol., 7:1111-21; Gorden et al., 2005, J. Immunol., 174:1259-68). […] In the following experiment mouse macrophage cell line, J774, has been transfected by test ribonucleotides as described above for HEK-Blue™ hTLR8 cells (with the exception that 2-10×10^4 cells/well were used) and TNF-α was measured in culture supernatants at 16-20 hours after transfection.

In series [2] the test system is HEK-Blue™ Null. The format is cell-based, human.
Series [3] has as its system murine splenocytes. Nature of the series: Immune cell activation (CD69 expression, FACS) in murine splenocytes. The format is cell-based, mouse. The note with it: 20 hours. How it is done: In addition, upon removal of the supernatant at 20 hours post-incubation, the mouse cells were stained for the following cell markers: GR1, F4/80, CD11c, CD220, CD3, Ly49b, and CD69, and analyzed by FACS. Different immune cell populations were distinguished as follows: macrophages (F4/80^+/GR1^−); plasmacytoid dendritic cells or pDC (CD11c^+/CD220^+); B cells (CD220^+/CD11c^−); NK (CD3^−/Ly49b^+); myeloid DC or mDC ([…]); granulocytes (eosinophils) (GR1^+high/F4/80^−); T cells (CD3^+); and NKT cells (CD3^+/Ly49b^+). All immune cell populations were quantified by the expression of CD69 (am early activation marker).

The target of series [4] is T1, human TLR9 (Homo sapiens, UniProt Q9NR96).
T1 construct: expressed in transfected cells; host or cells: HEK-Blue hTLR9 (HEK293-derived reporter line)
T1 sequence (Q9NR96 26-1032): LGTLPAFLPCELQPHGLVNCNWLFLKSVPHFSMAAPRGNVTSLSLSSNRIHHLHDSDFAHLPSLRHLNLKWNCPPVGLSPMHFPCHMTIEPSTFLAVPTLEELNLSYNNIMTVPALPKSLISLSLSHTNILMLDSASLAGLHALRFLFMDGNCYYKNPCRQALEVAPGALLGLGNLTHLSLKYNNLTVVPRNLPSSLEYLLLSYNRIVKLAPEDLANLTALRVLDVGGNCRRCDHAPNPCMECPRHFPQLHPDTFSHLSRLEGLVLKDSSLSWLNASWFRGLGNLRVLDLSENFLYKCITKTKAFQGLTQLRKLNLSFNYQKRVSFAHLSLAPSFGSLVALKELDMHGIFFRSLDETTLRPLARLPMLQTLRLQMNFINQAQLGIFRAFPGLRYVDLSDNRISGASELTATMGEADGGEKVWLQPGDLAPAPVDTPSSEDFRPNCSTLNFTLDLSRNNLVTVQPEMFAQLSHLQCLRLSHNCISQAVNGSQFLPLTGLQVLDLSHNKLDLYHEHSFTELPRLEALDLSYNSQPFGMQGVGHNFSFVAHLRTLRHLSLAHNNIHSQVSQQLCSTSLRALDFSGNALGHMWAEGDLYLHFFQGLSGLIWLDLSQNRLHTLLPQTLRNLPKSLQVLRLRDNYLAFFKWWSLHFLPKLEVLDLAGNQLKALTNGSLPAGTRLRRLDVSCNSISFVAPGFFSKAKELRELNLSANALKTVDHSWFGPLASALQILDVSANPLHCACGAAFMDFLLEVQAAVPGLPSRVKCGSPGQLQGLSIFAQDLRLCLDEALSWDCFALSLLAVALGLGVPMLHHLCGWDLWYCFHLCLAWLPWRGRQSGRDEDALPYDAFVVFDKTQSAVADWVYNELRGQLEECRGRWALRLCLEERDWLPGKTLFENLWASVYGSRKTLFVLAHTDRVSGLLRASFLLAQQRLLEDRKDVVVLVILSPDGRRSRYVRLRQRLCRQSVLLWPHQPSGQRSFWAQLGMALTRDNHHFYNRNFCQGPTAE
The format is cell-based.

Series [5] concerns primary human lymphocytes. It is filed as cell-based. The conditions noted are these: 20 hours.
Series [6] concerns the target T2, human TLR3 (Homo sapiens, UniProt O15455).
T2 construct: expressed in transfected cells; host or cells: HEK-Blue hTLR3 (HEK293-derived reporter line)
T2 sequence (O15455 24-904): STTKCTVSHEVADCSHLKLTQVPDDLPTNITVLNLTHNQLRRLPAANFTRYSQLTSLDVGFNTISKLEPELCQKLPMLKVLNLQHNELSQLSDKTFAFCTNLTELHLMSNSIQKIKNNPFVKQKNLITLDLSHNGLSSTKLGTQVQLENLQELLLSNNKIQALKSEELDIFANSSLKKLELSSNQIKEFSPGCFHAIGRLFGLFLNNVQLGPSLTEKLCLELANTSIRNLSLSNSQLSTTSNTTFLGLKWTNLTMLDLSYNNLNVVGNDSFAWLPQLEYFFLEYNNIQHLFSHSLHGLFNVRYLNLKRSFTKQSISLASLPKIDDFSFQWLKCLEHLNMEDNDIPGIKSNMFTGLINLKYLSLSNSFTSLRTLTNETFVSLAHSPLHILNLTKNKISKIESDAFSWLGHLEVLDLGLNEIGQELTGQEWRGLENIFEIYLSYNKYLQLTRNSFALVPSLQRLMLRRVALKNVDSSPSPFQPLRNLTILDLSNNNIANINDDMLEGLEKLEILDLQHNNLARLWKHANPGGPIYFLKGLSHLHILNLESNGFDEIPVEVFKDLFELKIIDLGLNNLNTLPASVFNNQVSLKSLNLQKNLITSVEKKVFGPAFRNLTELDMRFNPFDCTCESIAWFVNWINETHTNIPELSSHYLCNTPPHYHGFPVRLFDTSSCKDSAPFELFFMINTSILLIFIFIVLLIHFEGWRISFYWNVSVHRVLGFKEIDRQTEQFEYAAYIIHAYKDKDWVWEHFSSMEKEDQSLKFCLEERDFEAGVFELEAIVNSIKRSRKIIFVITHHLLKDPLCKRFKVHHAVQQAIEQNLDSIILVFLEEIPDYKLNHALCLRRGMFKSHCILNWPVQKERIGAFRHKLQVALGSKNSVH
It is filed as cell-based.

The mark [7] stands for this setting: 200 nM, compared with R848 1 μM.

Consider “5′-GAGAUGUUAUUUUGUUUUUAAUAUUUC-3′ (phosphorothioate backbone, further chemistry not given here) [SL-0001, phosphorothioated 27-ribonucleotide from the 3′-terminus of Chikungunya virus strain TSI-GSD-218, bases 12010-12036]”, for which the “TNF-α induction, described in words” value in series [1] is “strongly induced TNF-α expression, to the level seen when R-0006 was used”. Besides, in series [2], the “activation of SEAP expression” value is listed as “No activation of SEAP expression”. Besides, the “activation of immune cell populations (CD69 expression)” value in series [3] (200 nM DOTAP-complexed) is on record as “induced activation in most of the tested immune cell populations”. Moreover, the “immune cell activation compared with R848 and control oligonucleotide” value in series [3] (200 nM DOTAP-complexed, R848 1 μM) is “at least comparable to that generated by treatment with 1 μM of R848, and usually exceeded the effects exhibited by the control oligonucleotide R-0006”. Moreover, in series [3] (setting [7]), the “NKT cell activation (CD69)” value is given as “exceeded the activation observed for R848”, the “T cell activation (CD69)” value is “exceeded the activation observed for R848” and the “granulocyte activation (CD69)” value is “exceeded the activation observed for R848”. Moreover, the “macrophage activation (CD69)” value in series [3] (200 nM, compared with R-0006) was “especially higher than the activation observed for R-0006”. Besides, the “activation of SEAP expression” value in series [4] is “No activation of SEAP expression”. For the same substance, in series [5], the “11-12(p40) induction” value was “significant levels”, the IFNγ induction result is reported as “significant levels”, the “IL-4 induction (Th2-type cytokine)” value is “insignificant” and the “IL-5 induction (Th2-type cytokine)” value is on record as “insignificant”. In series [5], the IL-6 induction result is recorded as “significant levels”, the IL-10 induction result is on record as “significant levels”, the IL-23 induction result is listed as “significant levels” and the TNFα induction result is reported as “significant levels”. For the same substance, in series [6], the “activation of SEAP expression” value is “No activation of SEAP expression”.
